For 29 molecules, EC50, IC50 and outcome results are on record in PubChem BioAssay AID179 (DTP/NCI, 2004).

The subject of this experiment is CEM cells HIV-1 protection, formazan growth assay. The experiment can be described thus: NCI AIDS Antiviral Assay. The note with it: for IC50: measured here: growth of uninfected CEM cells. The method in brief:
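Human CEM cells, uninfected and HIV-1-infected, exposed to five drug concentrations; growth measured by soluble formazan assay and scored as percent protection from infection, with protecting compounds retested.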

Molecules are shown by their SMILES. Calls of active or inactive are those of the source.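 How the source made its calls: active means compounds giving half or more protection of infected cells from virus-caused growth loss, again on retest; inactive means the rest.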

One may read the EC50 as the concentration needed to bring the measured effect to its halfway point. Broadly, the IC50 is the concentration that inhibits the measured activity by half. Higher therefore signals weaker potency.

Consider `C=CCSCCCC#Cc1ccccc1C(=O)OC`, for which the EC50 was above 200 µM and the IC50 was 151 µM. With `CCN(C)N=Nc1ccc(C(N)=O)cc1`, the EC50 is above 1200 µM and the IC50 worked out at 617 µM. Consider `Cn1c(COC(=O)NC2CCCCC2)c(COC(=O)NC2CCCCC2)c2ccc3ccccc3c21`, for which the EC50 was above 174 µM and the IC50 amounted to 2.82 µM. In the same order, the values of `Cc1nc(C)c(N2CCN(C(=O)O)CC2)c(=O)[nH]1` are above 200 µM and above 200 µM. In the same order, the values of `O=C(Nc1ccccc1C(F)(F)F)OCCN1CCNC1=S` are above 200 µM and above 200 µM. In the same order, the values of `O=C1N(C2CCCCC2)CC2(Cc3ccccc3)c3ccccc3NC12O` (stereo not drawn) are above 20 µM and above 20 µM.

In the case of `COC(=O)C(C#N)C1NC(=O)c2ccccc21` (stereo not drawn), the EC50 is above 81.3 µM and the IC50 was above 81.3 µM.

For the molecule `NC(=S)N/N=C1\NC(=O)/C(=C/c2ccc3c(c2)OCO3)S1`, the EC50 was above 200 µM and the IC50 was 158 µM.

Take `CCOP(=O)(OCC)C(Cc1ccc(OC)cc1)NC(=O)C(CC(C)C)NC(=O)OCc1ccccc1` (stereo not drawn): the EC50 was above 126 µM and the IC50 was found to be 8.91 µM.

`COc1ccccc1OCc1nnc(SCC(=O)O)n1-c1ccccc1`: the EC50 is above 676 µM and the half-inhibitory concentration (IC50) is above 676 µM.

On to `OC1(c2ccccc2)CSc2ncnn21` (stereo not drawn), for which the EC50 was 138 µM and the IC50 was above 200 µM.

As to `COc1cc2c(cc1OC)C(Cc1ccc(Oc3cc(CC4c5cc(OC)c(OC)cc5CCN4C)ccc3O)cc1)N(C)CC2` (stereo not drawn), the outcome was inactive. Consider `Cc1ccccc1SC(/C=C/NNC1=NC(c2ccccc2)C(c2ccccc2)=NN1)c1ccccc1` (stereo not drawn), for which the EC50 is above 20 µM and the IC50 was above 20 µM. With `COc1ccc(Sc2ccccc2N)cc1`, the outcome was inactive.

Regarding `CCCCCNc1nonc1N`, the EC50 was above 200 µM and the IC50 was above 200 µM.

On to `COc1ccc(C(=O)Sc2ccccc2C(=O)Nc2ccc(S(=O)(=O)NC(C)=O)cc2)cc1`, for which the EC50 is 22.4 µM and the IC50 was above 100 µM.

Regarding `O=C(O)Cc1cccc2c(=O)c3cccc([N+](=O)[O-])c3[nH]c12`, the EC50 was above 200 µM and the IC50 was 102 µM. For the molecule `Clc1ccc(C=NC23CC4CC(CC(C4)C2)C3)c(Cl)c1`, the result was inactive. In the case of `CCC1Sc2cc(OC)cc3[nH]c(=S)n(c23)C1=O` (stereo not drawn), the half-maximal effective concentration (EC50) was determined as 126 µM and the concentration for half-maximal inhibition (IC50) came to 148 µM. In the same order, the values of `[CH2+][B-]1(C)n2cc(Br)c[n+]2[B-](C)(C)[n+]2cc(Br)cn21` are above 200 µM and 105 µM. For `CCOC(=O)c1c(N2CCCC2)ncn(-c2ccccc2)c1=S`, in that order: above 200 µM and above 200 µM.

On to `COC(=O)c1ccccc1CC(Cc1ccc2c(c1)CCC2)C(=O)OC` (stereo not drawn), for which the EC50 was above 200 µM and the IC50 was 56.2 µM. In the same order, the values of `O=C(CC1(O)C(=O)Nc2c(Cl)ccc(Cl)c21)c1ccc(Cl)cc1` (stereo not drawn) are above 51.3 µM and above 51.3 µM. For `C[CH2][Sn]1([CH2]C)[O]C(=O)[O][Sn]([CH2]C)([CH2]C)[O]1`, in that order: above 8.32 µM and 2.24 µM. For the molecule `CC1=C(c2cc(C(=O)Nc3cccc(C(F)(F)F)c3)nc(NC#N)n2)Sc2ccccc2N1`, the outcome was inactive.

As to `Cc1cnc(SCCN(C)C)nc1-c1cccs1`, the EC50 was above 891 µM and the IC50 was determined as 22.4 µM. For `CC(C)C(/C=C/c1ccc(Cl)c(Cl)c1)=N\NC(=O)N/N=C(/C=C/c1ccc(Cl)c(Cl)c1)C(C)C`, in that order: above 200 µM and above 200 µM.

For `Cc1ccc(N=C[N-]c2ccc(C)cc2)cc1.Cc1ccc(N=C[N-]c2ccc(C)cc2)cc1.O=C([O-])C(F)(F)F.O=C([O-])C(F)(F)F.[OH3+].[OH3+].[Rh+2].[Rh+2]`, the EC50 was above 14.1 µM and the IC50 is above 14.1 µM. As for `Nc1nc(N)c(CCCCc2ccccc2)c(C=O)n1`, the outcome was inactive.
